This is an account of results in US20210023089A1, “Compositions Useful for Treating Herpes Simplex Keratitis, and Methods Using Same” (priority 2013, published 2021).

In assay [1] the test system is HSV-1. Put plainly: Plaque assay of supernatants from HSV-1 infected HCE cells. The class given is cell-based, HSV-1 (KOS strain). Conditions: MOI 0.1, 10 μM, vs controls. On the procedure: (§1) All cells were cultured at 37° C. and 5% CO2, and supplemented with 100 U/ml penicillin and 100 μg/ml streptomycin. Human corneal epithelial cells immortalized with hTERT (hTCEpi; Bahassi et al., 2008, Oncogene 27:3977-3985) were grown in complete KGM-2 medium. Human corneal epithelial cells immortalized with SV40 large T antigen (HCE; Araski-Sasaki et al., 1995, Invest. Ophthalmol. Visual Sci. 36:614-621), as well as African green monkey kidney fibroblasts (CV-1; Jensen et al., 1964, Proc. Natl. Acad. Sci. USA 52:53-59), were grown in DMEM medium supplemented with 10% FBS. KOS strain (Smith, Proc. Soc. Exp. Biol. Med. Soc. Exp. Biol. Med. 115:814-816) of HSV-1 was used in all infections. All viral stocks were titered on CV-1 monolayers.
Cells were grown in 6-well plates and used in experiments at […] confluence. Drug treatments were administered 45 min prior to infection and continued for the entire duration of each experiment. Unless indicated otherwise, Chk2 inhibitor II (>98% purity by HPLC) was used at 10 μM final concentration, and phosphonoacetic acid (PAA) at 400 μg/ml (both from Sigma-Aldrich, St. Louis, Mo.). Chk2 inhibitor II was dissolved in DMSO such that the final concentration of DMSO in both Chk2 inhibitor II and mock treatment was 0.1%. […]

The subject of assay [2] is HSV-1. The experiment in a line: qPCR of viral genome replication in HSV-1 infected HCE cells. The class given is cell-based, HSV-1 (KOS strain). Conditions: MOI 0.1, inhibitor 10 μM. Here is the method:
as §1
Tetracyline-inducible Chk2 knockdown cell line was derived by lentivirally transducing HCE cells with a construct harboring shRNA sequence against the Chk2 transcript. The Chk2 shRNA sequence was acquired from Sigma (NM_007194.2-129951c1) and targets the following region: 5′-[…]-3′ (SEQ ID NO:1). Lentiviral particles were produced in 293T packaging cells (Dull et al., 1998, J. Virol. 72:8463-8471). […]
Total DNA from infected cells and corneas was isolated using the DNeasy Blood & Tissue Kit (QIAGEN, Hilden, Germany). Real time quantitative PCR was performed with SYBR Green (Bio-Rad, Hercules, Calif.). […]

Assay [3] concerns dlsptk strain of HSV-1 (TK mutant). The experiment in a line: qPCR of genome replication of drug-resistant HSV-1 in hTCEpi cells. Format: cell-based. On the procedure:
All cells were cultured at 37° C. and 5% CO2 and supplemented with 100 U/mL penicillin and […]. Human corneal epithelial cells immortalized with hTERT (hTCEpi; Robertson, et al., 2005, Invest Ophthalmol Vis Sci. 46:470-478) were grown in complete keratinocyte growth medium 2 (KGM-2; Lonza, Basel, Switzerland). African green monkey kidney fibroblasts (CV-1; American Type Culture Collection, Manassas, Va.) were grown in Dulbecco's modified Eagle's medium (DMEM; Cellgro, Manassas, Va.) supplemented with 10% FBS. The KOS strain of HSV-1 was used in the in vitro and ex vivo infections, whereas McKrae strain was used for in vivo mouse experiments, and TK mutant dlsptk strain (Coen et al., 1989, Proc Natl Acad Sci USA 86:4736-4740) was used in the drug resistance experiments. All viral stocks were titered on CV-1 monolayers.
The following strains of HSV-1 were used: KOS, ICPO-null, HFEM, and tsB7. Subconfluent monolayers of cells were grown in six-well plates. Drug treatments were administered 45 minutes prior to infection and continued for the entire duration of each experiment. Unless indicated otherwise, KU-55933 (Batch No. 5, 99.7% purity; Tocris Bioscience, Bristol, UK) was used at 10 μM final concentration, phosphonoacetic acid (PAA) at 400 μg/mL (Sigma-Aldrich, St. Louis, Mo.), and acyclovir at 50 μg/mL (Sigma-Aldrich). KU-55933 was dissolved in dimethyl sulfoxide (DMSO), and the final concentration of DMSO in both KU-55933 and mock treatment in the in vitro and the ex vivo experiments was 0.1%.
Viral genome replication and transcription were measured by quantitative PCR (qPCR). Total DNA and RNA from infected cells were isolated using the DNeasy Blood & Tissue Kit and the RNeasy Mini Kit, respectively (QIAGEN, Hilden, Germany). RNA was converted to cDNA using qScript (Quanta BioSciences, Gaithersburg, Md.). […] Transcription of the three gene families was measured with primers for RL2 (ICPO), UL30 (DNA polymerase catalytic subunit), and UL44 (gC), with reference primers for the 18S ribosomal RNA (rRNA).

In the case of `NC(=O)c1ccc2[nH]c(-c3ccc(Oc4ccc(Cl)cc4)cc3)nc2c1` [Chk2 inhibitor II, 2-(4-(4-chlorophenoxy)phenyl)-1H-benzimidazole-5-carboxamide], the “generation of infectious viral particles (plaque assay)” value in the assay on HSV-1 [1] is on record as “reduction”. Further, the “viral genome replication (qPCR)” value in the assay with HSV-1 [2] is “profoundly reduced”.
In the case of `O=c1cc(-c2cccc3c2Sc2ccccc2S3)oc(N2CCOCC2)c1` [KU-55933, 2-(morpholin-4-yl)-6-(thianthren-1-yl)-pyran-4-one], the “genome replication of dlsptk strain (qPCR)” value in assay [3] (MOI 0.1, 16 hpi, KU-55933 10 μM, acyclovir 50 μg/mL) is recorded as “markedly suppress”. For the same compound, in assay [3] (MOI 0.1, KU-55933 10 μM, 16 hpi), the “inhibitory effect on dlsptk infection compared with KOS infection” value was “as potent as its effect on KOS infection”.
